This note sets out measurements from patent US20250257059A1, “PROTEIN TYROSINE PHOSPHATASE INHIBITORS AND USES THEREOF” (Nerio Therapeutics, Inc., priority 2022, published 2025).

Molecules are shown by their SMILES.

Experiment [1] deals with murine B16F10 melanoma cell line. Kind of experiment: B16F10 IFNγ-induced cellular growth inhibition assay (xCELLigence RTCA). The format is cell-based. To be noted: Mus musculus, B16-F10, 48 h, B16F10 cells, 1 ng/mL mouse IFNγ, AUC of growth curve, read-out: B16 IFNγ Mediated Growth Inhibition Assay: AVG IC50.
Experiment [2] has as its target full-length human PTPN2 (TC45) (1-387) (Homo sapiens (Human), UniProt P17706). Kind of experiment: Enzymatic assay used to determine potency of PTPN2 inhibitors (full length PTPN2 DiFMUP assay). The format is biochemical. To be noted: 0.5 nM PTPN2, 100 μM DiFMUP, 30 min at room temperature.

full-length human PTPN2 (TC45) (1-387), sequence (P17706 other isoform, or with tags, fused parts or gaps): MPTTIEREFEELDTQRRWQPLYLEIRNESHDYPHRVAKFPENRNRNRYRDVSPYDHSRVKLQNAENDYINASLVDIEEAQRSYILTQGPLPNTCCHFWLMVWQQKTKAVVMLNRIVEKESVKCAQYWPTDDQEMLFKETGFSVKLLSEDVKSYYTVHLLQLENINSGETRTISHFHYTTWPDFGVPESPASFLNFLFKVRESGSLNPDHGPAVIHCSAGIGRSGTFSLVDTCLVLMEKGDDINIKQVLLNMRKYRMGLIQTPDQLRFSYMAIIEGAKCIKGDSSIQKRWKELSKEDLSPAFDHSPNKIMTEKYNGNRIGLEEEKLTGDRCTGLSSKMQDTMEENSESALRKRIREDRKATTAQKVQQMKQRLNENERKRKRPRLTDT

Turning to `CN1CCCCC(Cc2cc(O)c(N3CC(=O)NS3(=O)=O)c(F)c2)C1` (centres unmarked) [Example 56, 5-(2-fluoro-6-hydroxy-4-((1-methylazepan-3-yl)methyl)phenyl)-1,2,5-thiadiazolidin-3-one 1,1-dioxide], the IC50 (as a rule, the point on the concentration scale where inhibition reaches its midpoint) was over 45000 nM in experiment [1] and 28 nM in experiment [2].
Taken in the same sequence, the figures for `O=C1CN(c2c(O)cc(CC3CCN(CC4CCCC4)C3)cc2F)S(=O)(=O)N1` (centres unmarked) [Example 21] were 4590 nM and 15 nM.
As for `O=C1CN(c2c(O)cc(CCN3CCC(F)(F)CC3)cc2F)S(=O)(=O)N1` [Example 98], the values for the IC50 in experiment [1] and in experiment [2] were 1050 nM and 5 nM, respectively.
On the same counts, the results for `O=C1CN(c2c(O)cc(CC3CCCN(CC4CCNCC4)C3)cc2F)S(=O)(=O)N1` (centres unmarked) [Example 44] are 38000 nM and 4 nM.
